Reference: US9980904B2, “Dry powder formulation” (Teva Branded Pharmaceutical Products R&D, Inc., priority 2014, dated 2018)

How the values were obtained:
Assay type in all cases: physicochemical
[1] = Study 1 equilibration study: aerodynamic particle size distribution analysis (FPF and FPD) after 6 week equilibration
Experimental: (§1) Two batches of fluticasone/salmeterol housed within a Spiromax® device were prepared. […] Each batch was divided into two and equilibrated for six weeks under the conditions specified by each protocol. Protocol 1: 30° C./65% RH (unwrapped) Protocol 2: 40° C. […] Two batches of fluticasone/salmeterol housed within a Spiromax® device were prepared. Combination batches of fluticasone propionate and salmeterol xinafoate were selected at two different strengths, as in study 1. Each batch was divided into two and equilibrated for six weeks under the conditions specified by each protocol. Protocol 1: 30° C./65% RH (unwrapped) Protocol 3: 40° C.

[2] = Study 2 equilibration study: aerodynamic particle size distribution analysis (FPF and FPD) during 6 week equilibration
Experimental: as §1

[3] = Study 4 six month stability study: aerodynamic particle size distribution (FPF and FPD)
Experimental: (§2) Following inhaler equilibration according to protocol 2 (six weeks at 40° C./75% RH wrapped in foil with desiccant), eight-week stability tests of fluticasone propionate and salmeterol xinafoate (25 μg/25 μg and 100 μg/25 μg) were conducted. The in-use stability testing was conducted at 30° C./65% RH (unwrapped) as per discussion with the FDA. […] Following inhaler equilibration according to protocol 3 (six weeks at 40° C. wrapped in foil with desiccant), six-month stability tests of fluticasone propionate and salmeterol xinafoate (25 μg/25 μg and 100 μg/25 μg) were conducted. The stability of the formulations was assessed following storage under two different condition sets.

[4] = Study 3 eight week in-use stability study: aerodynamic particle size distribution (FPF and FPD); conditions: eight week in-use at 30° C./65% RH (unwrapped) after equilibration by protocol 2
Experimental: as §2

[5] = Study 1, batch 25/25 μg Fp/Sx in Spiromax, 30° C./65% RH (unwrapped)
[6] = Study 1, batch 25/25 μg, 40° C. (wrapped in foil with desiccant)
[7] = Study 1, batch 100/25 μg, 30° C./65% RH (unwrapped)
[8] = Study 1, batch 100/25 μg, 40° C. (wrapped in foil with desiccant)
[9] = Study 2, batch 25/25 μg, 30° C./65% RH (unwrapped)
[10] = Study 2, batch 25/25 μg, 40° C. (wrapped in foil with desiccant)
[11] = Study 2, batch 100/25 μg, 30° C./65% RH (unwrapped)
[12] = Study 2, batch 100/25 μg, 40° C. (wrapped in foil with desiccant)
[13] = Study 4, batch 25/25, six month storage at 25° C./60% RH (wrapped) after equilibration by protocol 3
[14] = Study 4, batch 25/25, six month storage at 40° C. (wrapped) after equilibration by protocol 3
[15] = Study 4, batch 100/25, six month storage at 25° C./60% RH (wrapped) after equilibration by protocol 3
[16] = Study 4, batch 100/25, six month storage at 40° C. (wrapped) after equilibration by protocol 3

Aerodynamic particle size distribution (% change from base) FPD [1, 5] [%] | Aerodynamic particle size distribution (% change from base) FPF [1, 5] [%] | Aerodynamic particle size distribution (% change from base) FPD [1, 6] [%] | Aerodynamic particle size distribution (% change from base) FPF [1, 6] [%] | Aerodynamic particle size distribution (% change from base) FPD [1, 7] [%] | Aerodynamic particle size distribution (% change from base) FPF [1, 7] [%] | Aerodynamic particle size distribution (% change from base) FPD [1, 8] [%] | Aerodynamic particle size distribution (% change from base) FPF [1, 8] [%] | Aerodynamic particle size distribution (% change from base) FPD [2, 9] [%] | Aerodynamic particle size distribution (% change from base) FPF [2, 9] [%] | Aerodynamic particle size distribution (% change from base) FPD [2, 10] [%] | Aerodynamic particle size distribution (% change from base) FPF [2, 10] [%] | Aerodynamic particle size distribution (% change from base) FPD [2, 11] [%] | Aerodynamic particle size distribution (% change from base) FPF [2, 11] [%] | Aerodynamic particle size distribution (% change from base) FPD [2, 12] [%] | Aerodynamic particle size distribution (% change from base) FPF [2, 12] [%] | Aerodynamic particle size distribution (% change from base) FPD [3, 13] [%] | Aerodynamic particle size distribution (% change from base) FPF [3, 13] [%] | Aerodynamic particle size distribution (% change from base) FPD [3, 14] [%] | Aerodynamic particle size distribution (% change from base) FPF [3, 14] [%] | Structure (SMILES) | further results
−16 | −19 | −13 | −12 | −13 | −12 | −17 | −14 | −19 | −16 | −13 | −12 | −12 | −12 | −16 | −14 | −4 | 0 | −9 | −6 | CCC(=O)O[C@]1(C(=O)SCF)[C@H](C)C[C@H]2[C@@H]3C[C@H](F)C4=CC(=O)C=C[C@]4(C)[C@@]3(F)[C@@H](O)C[C@@]21C [Fp, fluticasone propionate] | Aerodynamic particle size distribution (% change from base) FPD [3, 15]: 0%; Aerodynamic particle size distribution (% change from base) FPF [3, 15]: 0%; Aerodynamic particle size distribution (% change from base) FPD [3, 16]: −8%; Aerodynamic particle size distribution (% change from base) FPF [3, 16]: −6%; Aerodynamic particle size distribution (% change from base) FPD ([4]; Study 3, batch 25/25 μg): −10%; Aerodynamic particle size distribution (% change from base) FPF ([4]; Study 3, batch 25/25 μg): −9%; Aerodynamic particle size distribution (% change from base) FPD ([4]; Study 3, batch 100/25 μg): 0%; Aerodynamic particle size distribution (% change from base) FPF ([4]; Study 3, batch 100/25 μg): 0%
−20 | −19 | −2 | −2 | −9 | −10 | 0 | 0 | −20 | −18 | −2 | −2 | −9 | −10 | 0 | 0 | −5 | 0 | −9 | −4 | OCc1cc(C(O)CNCCCCCCOCCCCc2ccccc2)ccc1O (centres unmarked) [Sx, salmeterol xinafoate] | Aerodynamic particle size distribution (% change from base) FPD [3, 15]: −3%; Aerodynamic particle size distribution (% change from base) FPF [3, 15]: −1%; Aerodynamic particle size distribution (% change from base) FPD [3, 16]: −13%; Aerodynamic particle size distribution (% change from base) FPF [3, 16]: −9%; Aerodynamic particle size distribution (% change from base) FPD ([4]; Study 3, batch 25/25 μg): −17%; Aerodynamic particle size distribution (% change from base) FPF ([4]; Study 3, batch 25/25 μg): −14%; Aerodynamic particle size distribution (% change from base) FPD ([4]; Study 3, batch 100/25 μg): −4%; Aerodynamic particle size distribution (% change from base) FPF ([4]; Study 3, batch 100/25 μg): −3%
